In ChEMBL document CHEMBL1938230, “6-Position optimization of tricyclic 4-quinolone-based inhibitors of glycogen synthase kinase-3β: discovery of nitrile derivatives with picomolar potency” (Bioorg Med Chem Lett, 2012):

Experiments:
[1] = molecular target: Tyrosine-protein kinase SYK (Homo sapiens) (UniProt P43405); assay: Inhibition of human SYK in HL-60 cells lysate assessed as reduction of labeling of acyl-phosphate ATP probe at 100 nM; assay type: cell-free
[2] = molecular target: T1, Inositol-tetrakisphosphate 1-kinase (Homo sapiens) (UniProt Q13572); assay: Inhibition of human ITPK1 in HL-60 cells lysate assessed as reduction of labeling of acyl-phosphate ATP probe at 100 nM; assay type: cell-free
T1 sequence (whole entry): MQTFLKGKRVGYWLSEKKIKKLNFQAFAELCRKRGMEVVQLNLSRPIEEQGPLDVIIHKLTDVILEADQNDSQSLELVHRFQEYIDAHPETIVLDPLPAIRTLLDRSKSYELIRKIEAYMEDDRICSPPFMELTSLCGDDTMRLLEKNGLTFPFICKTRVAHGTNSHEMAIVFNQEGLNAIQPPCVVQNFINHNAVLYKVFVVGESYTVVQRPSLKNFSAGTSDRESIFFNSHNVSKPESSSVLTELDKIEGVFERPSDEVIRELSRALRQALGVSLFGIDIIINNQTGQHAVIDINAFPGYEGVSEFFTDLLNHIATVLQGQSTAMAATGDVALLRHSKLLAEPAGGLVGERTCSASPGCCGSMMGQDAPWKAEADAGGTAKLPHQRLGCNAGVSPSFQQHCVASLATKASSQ

[3] = test system: MAP4K2 (germinal center kinase) (Homo sapiens); assay: Inhibition of human GCK in HL-60 cells lysate assessed as reduction of labeling of acyl-phosphate ATP probe at 100 nM
[4] = test system: HL-60; assay: Inhibition of human MST3/MST4/YSK1 in HL-60 cells lysate assessed as reduction of labeling of acyl-phosphate ATP probe at 100 nM
[5] = molecular target: Serine/threonine-protein kinase OSR1 (Homo sapiens) (UniProt O95747); assay: Inhibition of human OSR1 in HL-60 cells lysate assessed as reduction of labeling of acyl-phosphate ATP probe at 100 nM; assay type: cell-free
Serine/threonine-protein kinase OSR1 (Homo sapiens), sequence (O95747 2-527 limits assumed): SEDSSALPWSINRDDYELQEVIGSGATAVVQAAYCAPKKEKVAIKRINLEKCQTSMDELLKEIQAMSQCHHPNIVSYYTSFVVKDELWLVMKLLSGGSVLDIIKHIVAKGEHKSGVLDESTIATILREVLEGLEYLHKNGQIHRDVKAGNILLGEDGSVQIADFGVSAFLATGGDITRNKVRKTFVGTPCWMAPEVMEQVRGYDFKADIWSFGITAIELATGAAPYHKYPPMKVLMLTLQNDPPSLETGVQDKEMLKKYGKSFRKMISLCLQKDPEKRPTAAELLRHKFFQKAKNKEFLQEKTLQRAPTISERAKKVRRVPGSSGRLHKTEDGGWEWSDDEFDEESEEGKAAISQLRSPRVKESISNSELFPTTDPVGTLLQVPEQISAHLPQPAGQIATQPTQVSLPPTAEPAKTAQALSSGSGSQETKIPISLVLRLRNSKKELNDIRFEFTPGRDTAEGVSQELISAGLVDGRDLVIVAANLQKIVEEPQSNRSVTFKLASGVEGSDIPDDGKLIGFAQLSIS

[6] = molecular target: Serine/threonine-protein kinase 16 (Homo sapiens) (UniProt O75716); assay: Inhibition of human MPSK1 in HL-60 cells lysate assessed as reduction of labeling of acyl-phosphate ATP probe at 100 nM; assay type: cell-free
Serine/threonine-protein kinase 16 (Homo sapiens), sequence (O75716 whole entry): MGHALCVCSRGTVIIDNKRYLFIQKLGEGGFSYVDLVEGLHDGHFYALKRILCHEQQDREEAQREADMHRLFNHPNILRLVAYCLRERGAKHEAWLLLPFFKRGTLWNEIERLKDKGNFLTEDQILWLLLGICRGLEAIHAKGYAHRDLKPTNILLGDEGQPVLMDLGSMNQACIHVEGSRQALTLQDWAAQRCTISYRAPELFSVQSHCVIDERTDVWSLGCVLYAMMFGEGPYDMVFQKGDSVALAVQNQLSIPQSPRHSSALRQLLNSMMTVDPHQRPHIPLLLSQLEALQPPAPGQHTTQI

[7] = molecular target: Cyclin-dependent kinase 6 (Homo sapiens) (UniProt Q00534); assay: Inhibition of human CDK6 in HL-60 cells lysate assessed as reduction of labeling of acyl-phosphate ATP probe at 100 nM; assay type: cell-free
Cyclin-dependent kinase 6 (Homo sapiens), sequence (Q00534 whole entry): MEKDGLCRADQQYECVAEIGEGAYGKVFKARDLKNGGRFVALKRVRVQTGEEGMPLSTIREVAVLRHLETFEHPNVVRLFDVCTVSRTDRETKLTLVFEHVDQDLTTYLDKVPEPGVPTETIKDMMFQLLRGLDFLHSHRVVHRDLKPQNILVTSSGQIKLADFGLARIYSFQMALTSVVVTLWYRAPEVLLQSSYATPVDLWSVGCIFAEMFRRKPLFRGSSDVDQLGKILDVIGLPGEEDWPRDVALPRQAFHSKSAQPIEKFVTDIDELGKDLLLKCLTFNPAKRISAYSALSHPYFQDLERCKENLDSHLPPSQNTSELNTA

[8] = molecular target: T2, Dual specificity mitogen-activated protein kinase kinase 7 (Homo sapiens) (UniProt O14733); assay: Inhibition of human MAP2K7 in HL-60 cells lysate assessed as reduction of labeling of acyl-phosphate ATP probe at 100 nM; assay type: cell-free
T2 sequence (whole entry): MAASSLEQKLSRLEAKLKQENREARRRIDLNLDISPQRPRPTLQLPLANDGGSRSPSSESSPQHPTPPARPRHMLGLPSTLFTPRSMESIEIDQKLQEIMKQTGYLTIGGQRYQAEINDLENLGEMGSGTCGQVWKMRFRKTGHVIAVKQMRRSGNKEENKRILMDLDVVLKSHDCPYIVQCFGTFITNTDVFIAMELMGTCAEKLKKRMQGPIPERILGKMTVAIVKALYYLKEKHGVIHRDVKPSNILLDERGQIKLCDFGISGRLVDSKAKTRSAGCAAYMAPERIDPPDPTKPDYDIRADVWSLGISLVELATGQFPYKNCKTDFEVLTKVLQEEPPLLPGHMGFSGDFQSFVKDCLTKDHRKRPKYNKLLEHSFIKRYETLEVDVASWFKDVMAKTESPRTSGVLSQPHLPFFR

[9] = molecular target: T3, Interleukin-1 receptor-associated kinase 3 (Homo sapiens) (UniProt Q9Y616); assay: Inhibition of human IRAK3 in HL-60 cells lysate assessed as reduction of labeling of acyl-phosphate ATP probe at 100 nM; assay type: cell-free
T3 sequence (whole entry): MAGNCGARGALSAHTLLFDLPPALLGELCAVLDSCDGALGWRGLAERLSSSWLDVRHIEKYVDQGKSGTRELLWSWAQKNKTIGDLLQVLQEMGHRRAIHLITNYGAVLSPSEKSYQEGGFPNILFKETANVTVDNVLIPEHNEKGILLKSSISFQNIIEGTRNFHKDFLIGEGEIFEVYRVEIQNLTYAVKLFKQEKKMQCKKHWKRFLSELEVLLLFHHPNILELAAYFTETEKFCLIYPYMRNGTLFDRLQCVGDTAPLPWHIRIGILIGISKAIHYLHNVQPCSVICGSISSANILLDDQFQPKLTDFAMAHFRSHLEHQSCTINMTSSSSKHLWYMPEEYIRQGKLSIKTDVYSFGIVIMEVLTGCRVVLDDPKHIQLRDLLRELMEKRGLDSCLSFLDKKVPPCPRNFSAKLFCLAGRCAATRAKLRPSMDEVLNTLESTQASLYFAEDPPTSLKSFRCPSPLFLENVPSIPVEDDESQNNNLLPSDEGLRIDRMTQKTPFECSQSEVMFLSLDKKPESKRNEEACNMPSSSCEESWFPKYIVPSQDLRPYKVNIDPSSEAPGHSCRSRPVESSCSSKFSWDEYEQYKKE

[10] = molecular target: T4, STE20-related kinase adapter protein alpha (Homo sapiens) (UniProt Q7RTN6); assay: Inhibition of human STLK5 in HL-60 cells lysate assessed as reduction of labeling of acyl-phosphate ATP probe at 100 nM; assay type: cell-free
T4 sequence (whole entry): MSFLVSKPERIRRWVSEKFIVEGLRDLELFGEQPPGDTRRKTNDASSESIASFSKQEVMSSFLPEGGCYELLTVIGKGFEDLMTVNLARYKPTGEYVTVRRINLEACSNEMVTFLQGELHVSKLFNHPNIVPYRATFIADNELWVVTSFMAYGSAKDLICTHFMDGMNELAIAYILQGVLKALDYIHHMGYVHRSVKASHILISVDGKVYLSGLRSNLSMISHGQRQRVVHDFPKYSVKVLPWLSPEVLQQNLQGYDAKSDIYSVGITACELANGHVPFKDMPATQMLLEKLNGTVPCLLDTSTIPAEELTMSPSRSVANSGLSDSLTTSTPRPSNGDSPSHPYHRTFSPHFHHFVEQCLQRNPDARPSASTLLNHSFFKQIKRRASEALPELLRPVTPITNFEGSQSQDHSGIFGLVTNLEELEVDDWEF

C[C@H]1COc2c(NCCCn3cccn3)c(F)c(N)c3c(=O)c(C#N)cn1c23
< 35%: inhibition [1] | inhibition [2] | inhibition [3] | inhibition at 0.1 µM [4] | inhibition [5] | inhibition [6] | inhibition [7] | inhibition [8] | inhibition [9] | inhibition [10]

C[C@H]1COc2c(NCCCc3ccccn3)c(F)c(N)c3c(=O)c(C#N)cn1c23
< 35%: inhibition [1] | inhibition [2] | inhibition at 0.1 µM [4] | inhibition [5] | inhibition [6] | inhibition [7] | inhibition [8] | inhibition [9] | inhibition [10]

C[C@H]1COc2c(NCCCn3cccn3)c(F)c(N)c3c(=O)c(C(=O)O)cn1c23
< 35%: inhibition [1] | inhibition [2] | inhibition at 0.1 µM [4] | inhibition [5] | inhibition [6] | inhibition [7] | inhibition [8] | inhibition [9] | inhibition [10]

C[C@H]1COc2c(NCCCc3ccccn3)c(F)c(N)c3c(=O)c(C(=O)O)cn1c23
< 35%: inhibition [1] | inhibition [2] | inhibition [3] | inhibition at 0.1 µM [4] | inhibition [5] | inhibition [6] | inhibition [7] | inhibition [8] | inhibition [9] | inhibition [10]
